In assay [1] the test system is antibodies present in IFA sero-positive sera from patients infected with Bartonella henselae (IgG). Nature of the assay: IgG ELISA with synthetic polypeptides of 17-kDa protein as coating antigen. Type of assay: binding, human. The following applies: for antibody binding activity in ELISA: IFA sero-positive sera, mostly relative to peptide 3C. An excerpt: A panel of 47 human sera, including 27 IFA positive and 20 WA negative sera, was used. ROC analysis was used to analysis the binding activity via OD450nm (FIGS. 19 and 21). AUCs for peptide 3C, 3B, 3D, and 3E were 0.9, 0.5, 0.5, and 0.8 respectively (FIGS. 19 and 21). […] Thus, the antibody recognition site seems to be present on peptide 3C (but not peptides 3B and 3D).
We adopted an IgG ELISA assay and evaluated the binding activity of the modified peptides towards IgG. The ELISA procedure involves: (i) coating 96-well micro-titer plates with modified peptides at varying concentrations (e.g., 0.2-5 μg/ml) at 4° C. overnight; (ii) adding 5% skim milk to block non-specific binding; (iii) adding patients' sera to allow formation of antibody-antigen complex; (iv) detecting the antibody-antigen complex. IFA sero-positive sera served as positive controls and IFA sero-negative sera served as negative controls. Detection of antibody-antigen complex was performed with the use of horseradish peroxidase.
A panel of 47 human sera was used in an ELISA assay to evaluate the sensitivity and specificity for synthetic polypeptides of 17-kDa protein. This panel contains 27 IFA positive sera and 20 IFA negative sera. Synthetic polypeptides used include amino acid substitution (Peptide 3C-CS3), addition (Peptide 3C-Ext2), and deletion (Peptide 3C-Del). Antibody binding was reflected by OD450nm, which was analyzed by Interactive dot diagram in statistic software MedCalc.
In general terms: In an ELISA, binding on a coated surface is turned into a signal by an enzyme label.

Assay [2] relates to antibodies against Bartonella henselae in IFA sero-positive patient sera (IgG). Nature of the assay: IgG ELISA with recombinant 17-kDa protein or Fragment 3 as coating antigen. Type of assay: binding, human. The procedure:
In the ELISA assay, purified Fragment 3 protein was diluted in coating buffer to a final concentration of 250 ng/ml. Antigen was adhered to 96-well plate by applying 100 μl this solution per well and incubated at 4° C. for 18 hours. Uncoated antigen was removed by washing the plate three times with PBST wash buffer. After washing, post-coating was done with 300 μl blocking reagent General Blocker BB1 in each well for 1 hour at 22° C. Primary polyclonal antibody from 100 μl serum in 1:100 sample dilution buffer each well was allowed to react with coated antigen for 1 hour at 22° C. After five wash steps with PBST wash buffer, each well was incubated with […] peroxidase conjugated goat anti-human IgG (KPL, 1:20,000 from 1 mg/ml stock in sample dilute buffer) for 30 minutes at 22° C. The excess amount of secondary antibody was also removed by five wash steps with PBST wash buffer. The reaction were visualized by adding 100 μl substrate 3,3′5,5′-Tetramethylbenzidine solution and incubated at 22° C. for 15 minutes. The reaction was terminated by adding 100 μl 0.5 M H2SO4 per well before taking OD450nm measurement. Receiver operating characteristic curve (ROC) analysis was calculated with associated 95% confidence interval using a binomial distribution with the MedCalc program.
In this series of studies, a panel containing 12 IFA positive serum samples and 6 IFA negative serum samples was evaluated by ELISA using the respective antigen as the coating antigen. FIG. 15 presents the results of this ELISA analysis. […] Neither antigen bound antibody in sample #3508.
To further characterize the comparative abilities of recombinant Fragment 3 and the full length protein to bind antibodies to Bartonella henselae, a broader panel of 47 serum samples (27 IFA positive serum samples and 20 IFA negative serum samples) was analyzed by ELISA. The raw data was analyzed with ROC curve comparison in statistic software MedCalc.
A panel of 47 human sera was used in an IgG ELISA to evaluate the sensitivity and specificity for Fragment 3 mutants. The raw data was analyzed by interactive dot diagram assay (FIGS. 31 and 32).
Purified protein was diluted in coating buffer to a final concentration 250 ng/ml. Antigen was adhered to 96-well plate by applying 100 μl above prepared solution per well and incubate at 4° C. for 18 hours. We removed uncoated antigen by washing plate three times with PBST wash buffer. After washing, post-coating was done with 300 μl blocking reagent General Blocker BB1 each well for 1 hour at 22° C. Then primary polyclonal antibody from 100 μl serum in 1:100 sample dilution buffer each well was allowed to react with coated antigen for 1 hour at 22° C. After five times washing with PBST wash buffer, we incubated each well with 100 μl peroxidase conjugated goat anti-human IgG (KPL, 1:20,000 from 1 mg/ml stock in sample dilute buffer) for 30 minutes at 22° C. The excess amount of secondary antibody was also removed by five times washing with PBST wash buffer. The reaction were visualized by adding 100 μl substrate 3,3′5,5′-Tetramethylbenzidine Solution and incubated at 22° C. for 15 minutes. In the end, we terminated reaction with 100 μl 0.5 M H2SO4 per well before taking OD450nm measurement. Receiver operating characteristic curve (ROC) analysis was calculated with associated 95% confidence interval using a binomial distribution with MedCalc program.

The mark [3] stands for this setting: ELISA, panel of 47 human sera (27 IFA positive, 20 IFA negative), ROC analysis of OD450nm.
Where [4] appears, read: panel study, 47 human sera (27 IFA positive, 20 IFA negative), interactive dot diagram.

“Also recorded” adds a separate entry of the source.

Regarding “DDLQKQLKEKLEKSDVRL (listed as Bartonella henselae) [Peptide 3C-CS1, peptide 3C with conservative substitution E to D]”, the “antibody binding activity in ELISA” value in assay [1] is recorded as “identical binding activity as compared to that of peptide 3C”.

Consider “EDIQKQLKEKLEKSDVRL (listed as Bartonella henselae) [Peptide 3C-CS2, peptide 3C with conservative substitution L to I]”, for which the “antibody binding activity in ELISA” value in assay [1] is reported as “same binding activity”.

Regarding “EDLQKQLKEKLEKSDVRL (listed as Bartonella henselae) [Peptide 3C, synthetic polypeptide, aa 131-148 of 17-kDa protein]”, in assay [1] (setting [3]), the AUC worked out at 0.9, the sensitivity is given as 77.8% and the specificity was found to be 88.2%. Further, the “antibody binding activity in ELISA” value in assay [1] was “possesses the antibody binding activity; also recorded: dose-dependent increase in binding towards sero-positive serum”. For the same molecule, the “antibody binding activity in ELISA” value in assay [1] (listed as SEQ ID NO: 22) is reported as “possesses the ability to bind to antibodies present in IFA positive sera”.

“EDLQKQLKSDKEVKLRLE (listed as Bartonella henselae) [Peptide 3C-RD2, peptide 3C with substitution of the last 10 AA at C-terminus]”: the “antibody binding activity in ELISA” value in assay [1] is on record as “completed abrogated the binding activity; also recorded: fail to bind antibody”. In assay [1] (setting [4]), this molecule yielded a sensitivity of roughly 11% and a specificity of 0%.

Consider “EDLQKQVKEKLEKSDVRL (listed as Bartonella henselae) [Peptide 3C-CS3, peptide 3C with conservative substitution L to V]”, for which the “antibody binding activity in ELISA” value in assay [1] is reported as “same binding activity; also recorded: identical binding activity as compared to that of peptide 3C”. In assay [1] (setting [4]), the sensitivity is roughly 80% and the specificity is roughly 90%.

For the molecule “ED_QKQLKEKLEKSDVRL (EDQKQLKEKLEKSDVRL; listed as Bartonella henselae) [Peptide 3C-Del, peptide 3C with leucine at third position from N-terminus deleted]”, the “antibody binding activity in ELISA” value in assay [1] is given as “did not alter the binding activity; also recorded: identical binding activity as compared to that of peptide 3C”. In assay [1] (setting [4]), this molecule showed a sensitivity of roughly 80% and a specificity of roughly 90%.

“EEQTQKKHEDLQKQLK (listed as Bartonella henselae) [Peptide 3D, synthetic polypeptide, aa 123-138 of 17-kDa protein]”: in assay [1] (setting [3]), the AUC was 0.5, the sensitivity is on record as 85.2% and the specificity stood at 25.0%.

In assay [1] (setting [3]), “EKLEKSDVRL (listed as Bartonella henselae) [Peptide 3E, synthetic polypeptide, aa 139-148 of 17-kDa protein]” returned an AUC of 0.8, a sensitivity of 40.7% and a specificity of 88.2%. For the same molecule, in assay [1], the “antibody binding activity in ELISA” value is given as “not sufficient to complete antibody binding”. Also, the “antibody binding activity in ELISA” value in assay [1] (listed as SEQ ID NO: 33) was “by itself insufficient to render the ability to bind antibodies present in IFA positive sera”.

On to “EQTQKKHEDLQKQLKEKLEKSDVRL (listed as Bartonella henselae) [Peptide 3C-Ext2, peptide 3C with addition of 7 AA at N-terminus]”, for which the “antibody binding activity in ELISA” value in assay [1] is “same binding activity as compared to that of peptide 3C; also recorded: identical binding activity as compared to that of peptide 3C”. In assay [1] (setting [4]), this molecule gave a sensitivity of roughly 80% and a specificity of roughly 90%.

For “LKLELELVQDSDKQEKRK (listed as Bartonella henselae) [Peptide 3C-RD, peptide 3C with substitution of the entire 18 AA]”, the “antibody binding activity in ELISA” value in assay [1] was “no binding activity; also recorded: fail to bind antibody”. In assay [1] (setting [4]), this molecule displayed a sensitivity of roughly 11% and a specificity of 0%.

For the molecule “LKQDEQKLEKLEKSDVRL (listed as Bartonella henselae) [Peptide 3C-RD1, peptide 3C with substitution of the first 8 AA at N-terminus]”, the “antibody binding activity in ELISA” value in assay [1] is listed as “same binding activity as compared to that of peptide 3C”.

For the molecule “QAKDTKTKEELREEQTQK (listed as Bartonella henselae) [Peptide 3B, synthetic polypeptide, aa 111-128 of 17-kDa protein]”, in assay [1] (setting [3]), the AUC came to 0.5, the sensitivity was 33.3% and the specificity is listed as 90.0%.

As to “QKKHEDLQKQLKEKLEKSDVRL (listed as Bartonella henselae) [Peptide 3C-Ext1, peptide 3C with addition of 4 AA at N-terminus]”, the “antibody binding activity in ELISA” value in assay [1] was “same binding activity as compared to that of peptide 3C”.

B1: 17-kDa Fragment 3: His-tagged recombinant fragment of 17-kDa protein, aa 77-148, glutamine instead of arginine at position 147 (protein, listed as Bartonella henselae)
chain: KTKPEQLQALQIELTLLQAQLQADTLKIQSLAMIQAKDTKTKEELREEQTQKKHEDLQKQLKEKLEKSDVQL
modifications: His tag
Consider B1, for which, in assay [2] (IgG ELISA, panel of 47 serum samples (27 IFA positive, 20 IFA negative), MedCalc ROC), the “area under ROC curve (AUC)” value was 0.897. Besides, the “ability to bind antibodies in IgG ELISA” value in assay [2] (coating antigen, IFA positive vs IFA negative sera) is “binds to antibodies against Bartonella henselae; also recorded: identical, if not better, ability to bind antibodies when compared with the full-length 17-kDa protein; also recorded: better sensitivity in detecting positive serum than the full length antigen”. Further, in assay [2] (panel of 12 IFA positive and 6 IFA negative serum samples), the “reaction with IFA negative serum samples” value was “Neither antigen reacted with any of the IFA negative serum samples”.
